Reference: patent publication US20230174584A1, “Antibiotic Compounds” (priority 2019, published 2023)
Where two headings read alike, the source gives them in different places.

Assays:
[1] = Cytotoxicity assay for HepG2 (MTT); type: cell-based, human; conditions: human
Protocol: (§1) Mammalian cytotoxicity assays were performed by Cyprotex. Cytotoxicity was assessed using the MTT assay. Briefly, HepG2 human hepatocellular carcinoma cells (100 μL per well) were plated on black-walled clear-bottomed polystyrene 96-well tissue culture treated plates 24 h prior to dosing the cells. The cells were dosed with test compound (dissolved in 0.5% DMSO in growth media containing 10% FBS) at a range of concentrations (0.04 μM, 0.1 μM, 0.4 μM, 1 μM, 4 μM, 10 μM, 40 μM, 100 μM). After 23 h period the cells were loaded with the MTT dye (yellow; 3-(4,5-dimethyl-2-thiazolyl)-2,5-diphenyl-2H-tetrazolium bromide) followed by an additional 1 h incubation (resulting in a total incubation time with antibiotics of 24 h). Subsequently, the plates are dried and solubilized in DMSO followed by scanning at 570 nm using a microplate absorbance reader. Cell viability is determined by conversion of the soluble MTT to insoluble formazan (purple) by mitochondrial […] in live cells. Production of formazan indicates […]. Carbonyl cyanide 3-chlorophenylhydrazone is used as no response control and chlorpromazine is used as control known to be cytotoxic. Solvent control wells (0.5% DMSO in growth media containing 10% FBS) are then used to determine significance limits for wells that have a greater than expected fraction of low or high responders. The minimum effective concentration is determined from the lowest concentration whose mean value exceeds the significance level, provided either a clear dose-response relationship is observed, or at least two consecutive concentration points are above the significance level. AC50 values are also determined provided a clear dose-response relationship is observed. Experiment was performed in triplicates.

[2] = system: HepG2 human hepatocellular carcinoma cells; test: Cytotoxicity assay for HepG2 (MTT); type: cell-based
Protocol: as §1

[3] = system: MRSA USA 300; test: Resistance development serial passage assay; type: cell-based, Staphylococcus aureus; conditions: MRSA serially passaged over 30 days in sub-lethal antibiotic concentrations
Protocol: (§2) FIG. 3 illustrates the results obtained when selected compounds were assessed using a resistance development serial passage assay. A) Daily fold-increase of MIC compared to initial MIC against MRSA USA 300 grown in sub-lethal concentrations of daptomycin, compound 5 or compound 16 over 30 days. B). Daily fold-increase of MIC compared to initial MIC against VRE E155 grown in sub-lethal concentrations of daptomycin, compound 5 or compound 16 over 30 days.
(§3) From glycerol stocks, bacterial strains were cultured on blood agar plates and incubated overnight at 37° C. A single colony was grown to exponential phase (OD600=0.5) in TSB+0.002% p80 and diluted 1:100 in fresh media. In polypropylene 96-well microtiter plates, antibiotics were added in biological triplicates and serial diluted 2-fold by transfer and mixing from one well to the next to achieve a final volume of 50 μL per well. An equal volume of bacterial suspension was added to the wells and plates were incubated overnight at 37° C. […] This procedure was repeated for 30 days and the MIC was recorded daily. Cultures containing daptomycin were supplemented with 50 mg L^−1 CaCl2 and 10 mg L^−1 MgSO4. The experiment was performed in biological replicates and for each replicate the MIC was determined from the median of a minimum of triplicates.

[4] = system: VRE E155; test: Resistance development serial passage assay; type: cell-based, Enterococcus faecium; conditions: VanA-type VRE strain serially passaged over 30 days in sub-lethal antibiotic concentrations
Protocol: as §2, §3

In the case of `CN(C)CCCN1c2ccccc2Sc2ccc(Cl)cc21` [Chropromazine], the AC50 at 24 h [1] is reported as 19 µM, the “Direction of response (↑↓)” value [2] is reported as “↓” and the MEC ([2]; human, 24 h) is reported as 12.4 µM.
`N#CC(C#N)=NNc1cccc(Cl)c1` [carbonyl cyanide 3-chlorophenylhydrazone] gave an AC50 at 24 h ([1]; HepG2 human hepatocellular carcinoma cells, MTT, HepG2, 24 h, 10% FBS, n = 3, read-out: AC50) greater than 100 µM.
With `CCCCCCCCCC(=O)N[C@@H](Cc1c[nH]c2ccccc12)C(=O)N[C@H](CC(N)=O)C(=O)N[C@@H](CC(=O)O)C(=O)N[C@@H]1C(=O)NCC(=O)N[C@@H](CCCN)C(=O)N[C@@H](CC(=O)O)C(=O)N[C@H](C)C(=O)N[C@@H](CC(=O)O)C(=O)NCC(=O)N[C@H](CO)C(=O)N[C@@H]([C@H](C)CC(=O)O)C(=O)N[C@@H](CC(=O)c2ccccc2N)C(=O)O[C@@H]1C` [daptomycin, reference compound] the “resistance induction, fold-increase of MIC compared to initial MIC” value [3] was 16 fold and the “resistance induction, fold-increase of MIC compared to initial MIC” value [4] was 128 fold.
